Structures can show the parent of a compound that is named as a salt.
Assays:
Format in all cases: cell-based
HIV (LAV-1 strain) = tested on: HIV (LAV-1 strain)
Description: 6.42 micromoles of dioleoylphosphatidylcholine, 3.85 micromoles of cholesterol, 1.28 micromoles of dioleoylphosphatidylglycerol and 1.28 micromoles of dimyristoylphosphatidyl-azidothymidine were mixed in a sterile 2.0 ml glass vial and the solvent was removed in vacuo in a rotary evaporator. In some experiments, dimyristoylphosphatidylazidothymidine was replaced with either dimyristoylphosphatidyldideoxythymidine, dimyristoylphosphatidyldideoxycytidine or azidothymidine diphosphate dimyristoylglycerol; control liposomes were prepared by omitting the antiviral liponucleotide. The dried film was placed under high vacuum overnight at room temperature to remove traces of solvent. The lipid film was hydrated at 30° C. with 0.3 ml of sterile 10 mM sodium acetate buffer (pH 5.0) containing isotonic dextrose and the ampule was sealed. The mixture was vortexed intermittently for 10 minutes followed by sonication using a Heat Systems Ultrasonics sonicator with a cup horn generator (431B) at output control setting #9 for 90 to 120 minutes at which time the sample is clarified. This sonicated preparation was diluted with sterile RPMI buffer and added to the tissue culture wells at the concentration indicated.
(§1) The human T lymphoblastoid cell line, CCRG-CEM (hereafter referred to as CEM), was grown in RPMI 1640 medium containing 100 U/ml penicillin G, 100 ug/ml streptomycin, 2 mM glutamine and 10% fetal bovine serum (Hyclone Laboratories, Logan, Utah). Cells were infected with the LAV-1 strain (L. Montagnier, Paris, France) at a multiplicity of infection of one tissue culture 50% infectious dose (TCID50)/cell for 60 minutes at 37° C. in medium containing […]. CEM cells were infected in suspension at 6×10^4 cells/ml, washed three times by centrifugation and resuspension and then distributed in 96-well plates at 6×10^4 cells/well before addition of medium containing the liposomal antiretroviral liponucleotide drugs.
(§2) Antiviral activity was assayed after 3 days by the inhibition of the production of HIV p24 (gag) antigen in the cell free culture medium of the infected cells exposed to different concentrations of drug; p24 antigen was measured by ELISA (Abbott Laboratories, Chicago, Ill.) according to the manufacturer's instructions. The data are the average of two determinations and are expressed as percentage of a control incubated in the absence of drugs.

[1] = tested on: HIV in CEM (wild type) cells; experiment: Experiment I276: antiviral protection of CEM cells by preincubation, p24 in supernates; details: 3 day preincubation; 24 and 48 hours in normal media after removal of drug
Description: The cells were then washed twice with PBS, and fresh RPMI media added. Each group of cells was then divided into three batches. One batch was immediately infected with HIV, as noted above; after washing away unattached HIV, the sample was allowed to incubate in media alone for 3 days. Two other batches were allowed to incubate in media alone for either 24 or 48 hours to allow any intracellular antiviral agent present to become depleted. Then they were infected with HIV, the cells washed free of virus, and fresh RPMI media added. After 3 days of further incubation, the supernates of all batches were tested for the presence of p24 protein.
CEM cells were subjected to HIV infection without preincubation; drug was added following HIV infection as indicated, and the cells were incubated for 3 days.
After a further incubation for 3 days, p24 was measured.

HIV in CEM tk- cells = experiment: Inhibition of HIV p24 production in thymidine kinase deficient CEM tk- cells; details: Experiment H637-1b, AZT 0.2 to 100 uM
Description: as §1, §2
In this experiment, CEM cells were replaced with mutant cells (provided by Dr. Dennis Carson, Scripps Clinic, San Diego, Calif.) which lack the thymidine kinase enzyme (CEM tk−).

CCCCCCCCCCCCCC(=O)OC[C@H](COP(=O)(O)OC[C@H]1O[C@@H](n2cc(C)c(=O)[nH]c2=O)C[C@@H]1N=[N+]=[N-])OC(=O)CCCCCCCCCCCCC [LN1, 1,2-Dimyristoylglycerophospho-5′-(3′-azido-3′-deoxy)thymidine, Monosodium Salt]
EC50 (HIV (LAV-1 strain); Experiment H533-1, liposomes containing 10 mole percent liponucleotide, CEM wild type, p24 after 3 days, read-out: amount of drug required to reduce virus production by 50% (E.D. 50)): 2 µM
effectiveness in reducing p24, phosphatidylAZT liposomes versus free AZT (HIV (LAV-1 strain); Experiment H747-1a, concentrations ranging from 2 to 170 uM): more effective than the free AZT
protection from HIV after removal of the drug [1]: complete protection from HIV replication
effect on p24 production (HIV in CEM tk- cells): capable of reducing p24 production

Source: patent publication US6448392B1, “Lipid derivatives of antiviral nucleosides: liposomal incorporation and method of use” (Chimerix, Inc., priority 1985, dated 2002)
